Assay results reported in US20230157952A1, “METHOD FOR IMPROVING THE STABILITY OF A PHARMACEUTICAL COMPOSITION COMPRISING A HIGH PENETRATION DRUG, AND THE PHARMACEUTICAL COMPOSITION OBTAINED THEREFROM” (Techfields Inc., priority 2020, published 2023).
Non-standard residues stand in square brackets, D forms with d. Arg(NO2) = N=C(NCCC[C@H](N)C(=O)O)N[N+](=O)[O-]

Assay: Effect of concentration on the stability of the solution (purity over time)
Conditions: for Stability of common ester over the concentrations tested: 0.01% to 10% (or higher) in 50% ethanol at 25° C.; for Purity (%) at Day 3 / Purity (%) at Day 7 / Purity (%) at hr 0 / Purity (%) at hr 24 / Purity(%) at Day 14 / Purity(%) at Day 21 / Purity(%) at Day 28 / Purity (%) at hr 2: 25° C.; for Purity at Day 30 / Purity at Day 90 / Purity at Day 180 / Purity at day 0: 1 equivalent sodium acetate in 50% ethanol at 25° C.

In the case of `CC(C)(C)OC(=O)C(N)Cc1ccccc1` (centres unmarked) [t-Butyl 2-amino-3-phenylpropanoate, reference compound], the “Stability of common ester over the concentrations tested” value was “not stable”, the “Purity (%) at Day 3” value (0.01 wt % in 50% ethanol) was 92.1% and the “Purity (%) at Day 7” value (0.01 wt % in 50% ethanol) was 89.4%. The “Purity (%) at hr 0” value (0.01 wt % in 50% ethanol) was 98.0%, the “Purity (%) at hr 24” value (0.01 wt % in 50% ethanol) was 96.1% and the “Purity(%) at Day 14” value (0.01 wt % in 50% ethanol) was 83.0%. The “Purity(%) at Day 21” value (0.01 wt % in 50% ethanol) was 60.2%, the “Purity(%) at Day 28” value (0.01 wt % in 50% ethanol) was 35.2% and the “Purity (%) at Day 3” value (0.1 wt % in 50% ethanol) was 93.1%. For the same compound, the “Purity (%) at Day 7” value (0.1 wt % in 50% ethanol) was 91.4%, the “Purity (%) at hr 0” value (0.1 wt % in 50% ethanol) was 98.0% and the “Purity (%) at hr 24” value (0.1 wt % in 50% ethanol) was 96.4%. The “Purity(%) at Day 14” value (0.1 wt % in 50% ethanol) was 86.1%, the “Purity(%) at Day 21” value (0.1 wt % in 50% ethanol) was 64.1% and the “Purity(%) at Day 28” value (0.1 wt % in 50% ethanol) was 41.0%. For the same compound, the “Purity (%) at Day 3” value (1 wt % in 50% ethanol) was 93.9%, the “Purity (%) at Day 7” value (1 wt % in 50% ethanol) was 92.2% and the “Purity (%) at hr 0” value (1 wt % in 50% ethanol) was 98.1%. The “Purity (%) at hr 24” value (1 wt % in 50% ethanol) was 96.7%, the “Purity(%) at Day 14” value (1 wt % in 50% ethanol) was 88.9% and the “Purity(%) at Day 21” value (1 wt % in 50% ethanol) was 70.9%. For the same compound, the “Purity(%) at Day 28” value (1 wt % in 50% ethanol) was 48.9%, the “Purity (%) at Day 3” value (3 wt % in 50% ethanol) was 94.6% and the “Purity (%) at Day 7” value (3 wt % in 50% ethanol) was 92.4%. The “Purity (%) at hr 0” value (3 wt % in 50% ethanol) was 98.2%, the “Purity (%) at hr 24” value (3 wt % in 50% ethanol) was 96.9% and the “Purity(%) at Day 14” value (3 wt % in 50% ethanol) was 89.5%. For the same compound, the “Purity(%) at Day 21” value (3 wt % in 50% ethanol) was 72.4%, the “Purity(%) at Day 28” value (3 wt % in 50% ethanol) was 50.4% and the “Purity (%) at Day 3” value (5 wt % in 50% ethanol) was 94.8%. For the same compound, the “Purity (%) at Day 7” value (5 wt % in 50% ethanol) was 93.1%, the “Purity (%) at hr 0” value (5 wt % in 50% ethanol) was 98.1% and the “Purity (%) at hr 24” value (5 wt % in 50% ethanol) was 97.0%. For the same compound, the “Purity(%) at Day 14” value (5 wt % in 50% ethanol) was 90.0%, the “Purity(%) at Day 21” value (5 wt % in 50% ethanol) was 73.0% and the “Purity(%) at Day 28” value (5 wt % in 50% ethanol) was 56.9%. The “Purity (%) at Day 3” value (10 wt % in 50% ethanol) was 95.9%, the “Purity (%) at Day 7” value (10 wt % in 50% ethanol) was 93.9% and the “Purity (%) at hr 0” value (10 wt % in 50% ethanol) was 98.2%. The “Purity (%) at hr 24” value (10 wt % in 50% ethanol) was 97.6%, the “Purity(%) at Day 14” value (10 wt % in 50% ethanol) was 91.0% and the “Purity(%) at Day 21” value (10 wt % in 50% ethanol) was 74.9%. For the same compound, the “Purity(%) at Day 28” value (10 wt % in 50% ethanol) was 59.2%.
For `CC(C)(C)OC(=O)c1ccccc1` [t-Butyl benzoate, reference compound], the “Stability of common ester over the concentrations tested” value was “very unstable”, the “Purity (%) at Day 3” value (0.01 wt % in 50% ethanol) was 0.0% and the “Purity (%) at Day 7” value (0.01 wt % in 50% ethanol) was 0.0%. The “Purity (%) at hr 0” value (0.01 wt % in 50% ethanol) was 97.5%, the “Purity (%) at hr 2” value (0.01 wt % in 50% ethanol) was 25.2% and the “Purity (%) at hr 24” value (0.01 wt % in 50% ethanol) was 0.0%. The “Purity(%) at Day 14” value (0.01 wt % in 50% ethanol) was 0.0%, the “Purity (%) at Day 3” value (0.1 wt % in 50% ethanol) was 0.0% and the “Purity (%) at Day 7” value (0.1 wt % in 50% ethanol) was 0.0%. For the same compound, the “Purity (%) at hr 0” value (0.1 wt % in 50% ethanol) was 97.4%, the “Purity (%) at hr 2” value (0.1 wt % in 50% ethanol) was 31.2% and the “Purity (%) at hr 24” value (0.1 wt % in 50% ethanol) was 0.0%. The “Purity(%) at Day 14” value (0.1 wt % in 50% ethanol) was 0.0%, the “Purity (%) at Day 3” value (1 wt % in 50% ethanol) was 0.0% and the “Purity (%) at Day 7” value (1 wt % in 50% ethanol) was 0.0%. For the same compound, the “Purity (%) at hr 0” value (1 wt % in 50% ethanol) was 97.5%, the “Purity (%) at hr 2” value (1 wt % in 50% ethanol) was 41.3% and the “Purity (%) at hr 24” value (1 wt % in 50% ethanol) was 1.6%. The “Purity(%) at Day 14” value (1 wt % in 50% ethanol) was 0.0%, the “Purity (%) at Day 3” value (3 wt % in 50% ethanol) was 1.1% and the “Purity (%) at Day 7” value (3 wt % in 50% ethanol) was 0.0%. For the same compound, the “Purity (%) at hr 0” value (3 wt % in 50% ethanol) was 97.4%, the “Purity (%) at hr 2” value (3 wt % in 50% ethanol) was 52.3% and the “Purity (%) at hr 24” value (3 wt % in 50% ethanol) was 15.4%. For the same compound, the “Purity(%) at Day 14” value (3 wt % in 50% ethanol) was 0.0%, the “Purity (%) at Day 3” value (5 wt % in 50% ethanol) was 3.6% and the “Purity (%) at Day 7” value (5 wt % in 50% ethanol) was 0.0%. The “Purity (%) at hr 0” value (5 wt % in 50% ethanol) was 97.4%, the “Purity (%) at hr 2” value (5 wt % in 50% ethanol) was 56.3% and the “Purity (%) at hr 24” value (5 wt % in 50% ethanol) was 20.3%. For the same compound, the “Purity(%) at Day 14” value (5 wt % in 50% ethanol) was 0.0%, the “Purity (%) at Day 3” value (10 wt % in 50% ethanol) was 5.1% and the “Purity (%) at Day 7” value (10 wt % in 50% ethanol) was 0.0%. For the same compound, the “Purity (%) at hr 0” value (10 wt % in 50% ethanol) was 97.8%, the “Purity (%) at hr 2” value (10 wt % in 50% ethanol) was 65.5% and the “Purity (%) at hr 24” value (10 wt % in 50% ethanol) was 25.1%. For the same compound, the “Purity(%) at Day 14” value (10 wt % in 50% ethanol) was 0.0%.
For “H-Val-Pro-Gly-Pro-Arg(NO2)—OCH2CH3•HCl (H-VPGP[Arg(NO2)]-OEt; also: HCl salt)”, the “Purity at Day 30” value (0.01 wt %) was 55.5%, the “Purity at Day 90” value (0.01 wt %) was 22.2% and the “Purity at Day 180” value (0.01 wt %) was 0%. For the same compound, the “Purity at day 0” value (0.01 wt %) was 98.1%, the “Purity at Day 30” value (0.1 wt %) was 65.7% and the “Purity at Day 90” value (0.1 wt %) was 31.3%. For the same compound, the “Purity at Day 180” value (0.1 wt %) was 9.6%, the “Purity at day 0” value (0.1 wt %) was 98.2% and the “Purity at Day 30” value (1 wt %) was 91.1%. For the same compound, the “Purity at Day 90” value (1 wt %) was 77.3%, the “Purity at Day 180” value (1 wt %) was 58.6% and the “Purity at day 0” value (1 wt %) was 98.5%. For the same compound, the “Purity at Day 30” value (3 wt %) was 96.8%, the “Purity at Day 90” value (3 wt %) was 93.2% and the “Purity at Day 180” value (3 wt %) was 87.8%. For the same compound, the “Purity at day 0” value (3 wt %) was 98.6%, the “Purity at Day 30” value (5 wt %) was 97.3% and the “Purity at Day 90” value (5 wt %) was 94.9%. For the same compound, the “Purity at Day 180” value (5 wt %) was 90.5%, the “Purity at day 0” value (5 wt %) was 98.7% and the “Purity at Day 30” value (7 wt %) was 97.6%. The “Purity at Day 90” value (7 wt %) was 95.2%, the “Purity at Day 180” value (7 wt %) was 91.7% and the “Purity at day 0” value (7 wt %) was 98.7%. The “Purity at Day 30” value (8 wt %) was 97.7%, the “Purity at Day 90” value (8 wt %) was 95.2% and the “Purity at Day 180” value (8 wt %) was 91.6%. For the same compound, the “Purity at day 0” value (8 wt %) was 98.6%, the “Purity at Day 30” value (10 wt %) was 97.5% and the “Purity at Day 90” value (10 wt %) was 95.3%. The “Purity at Day 180” value (10 wt %) was 91.7%, the “Purity at day 0” value (10 wt %) was 98.6% and the “Purity at Day 30” value (15 wt %) was 97.7%. The “Purity at Day 90” value (15 wt %) was 95.3%, the “Purity at Day 180” value (15 wt %) was 91.8% and the “Purity at day 0” value (15 wt %) was 98.8%. For the same compound, the “Purity at Day 30” value (20 wt %) was 97.5%, the “Purity at Day 90” value (20 wt %) was 95.1% and the “Purity at Day 180” value (20 wt %) was 91.5%. For the same compound, the “Purity at day 0” value (20 wt %) was 98.6%, the “Purity at Day 30” value (30 wt %) was 97.5% and the “Purity at Day 90” value (30 wt %) was 95.1%. For the same compound, the “Purity at Day 180” value (30 wt %) was 91.6%, the “Purity at day 0” value (30 wt %) was 98.7% and the “Purity at Day 30” value (50 wt %) was 97.7%. For the same compound, the “Purity at Day 90” value (50 wt %) was 95.3%, the “Purity at Day 180” value (50 wt %) was 91.8% and the “Purity at day 0” value (50 wt %) was 98.7%.
